From PMC6753678, “Fueling Open Innovation for Malaria Transmission-Blocking Drugs: Hundreds of Molecules Targeting Early Parasite Mosquito Stages” (Frontiers in Microbiology, 2019)
Where two headings read alike, the source gives them in different places.

Assays:
[1] = tested on: 3D7-strain P. falciparum asexual parasites; test: P. falciparum asexual growth inhibition assay (Pf GIA); format: cell-based, Plasmodium falciparum; details: dose response confirmation; read-out: Pf asexual growth inhibition assays IC50
In short: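 Steps: seed parasites (0.25% parasitemia, 2% hematocrit) onto compound dilutions; incubate 72 h at 37°C, 5% O2/5% CO2; freeze at −70°C and thaw; add LDH reaction mix, read A650 after 10 min. Percent growth inhibition derived from chloroquine and DMSO controls, averaged over three biological replicates.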

[2] = tested on: P. berghei ookinete development; details: for Is compound selective in assay? Pb ODA active?: 1: YES, 0: NO; for % inhibition, Replicate A / % inhibition, Replicate B: primary screen at 1 μM
[3] = tested on: P. falciparum female gametocytes; design: method as in Miguel-Blanco et al 2017; details: ref Miguel-Blanco et al 2017; read-out: Pf FGAA IC50; cited from earlier work
HepG2 cells [4] = details: HepG2; ref Miguel-Blanco et al 2017; cited from earlier work
HepG2 cells [5] = test: HepG2 cytotoxicity assay; details: for IC50: read-out: HepG2 cytotoxicity assay IC50, dose response confirmation
In short: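 Percent inhibition derived from fluorescent viability readout, normalised to DMSO (negative) and 50 μM doxorubicin (positive). Compound incubation lasted 48 h at 37°C, 5% CO2, with 2,500 HepG2 cells/well in MEM plus 10% FBS and 1% NEAA.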

[6] = tested on: P. falciparum female gametocytes; test: P. falciparum female gametogenesis assay (Pf FGAA); details: 1: YES; 0: NO; >10-fold selectivity over cytotox
[7] = read-out: Pb ODA IC50, this manuscript
[8] = read-out: Pb Ookinete development assay IC50, dose response confirmation
[9] = HepG2 values of the three screens unified
[10] = unified HepG2 cytotoxicity across the three screens
[11] = unified HepG2 value across the three screens

Structure (SMILES)	IC50 [3]	Is compound selective in assay? Pf FGAA active? [6]	Unified cytotox (HepG2 cells [5]; [10])	further results
Cc1[nH]c(C)c(-c2ccc(CCc3ccc(F)cc3F)cc2)c(=O)c1Cl [TCMDC-135462]	13300 nM			IC50 [1]: 2.53 nM; Is compound selective in assay? Pb ODA active? [2]: 1 (1: YES); % inhibition, Replicate A [2]: 91.00%; % inhibition, Replicate B [2]: 103.90%; IC50 [2, 7]: 10 nM; IC50 [2, 8]: 11 nM; HepG2 cytoxicity (Pf FGAA screen) (HepG2 cells [4]): >100 µM; Unified cytotox (HepG2 cells [5]; [9]): 100.00 µM; IC50 (HepG2 cells [5]): 100 µM
Clc1ccc(Nc2nc(NCc3ccccc3)nc(N/N=C/c3ccccn3)n2)cc1 [TCMDC-138557]	260 nM	1 (1: YES)	13.96 µM	
Cl.O=C(NCCCCN1CCC(c2ccc3c(c2O)CCCC3)CC1)c1ccc(NC(=O)c2ccc(Cl)cc2)cc1 [TCMDC-138645]	1490 nM	0 (0: NO)	3.80 µM	
CC(C)(C)c1ccc(CNCCOc2ccc(Nc3nnc(-c4ccc(-c5ncc[nH]5)cc4)o3)c3ccccc23)cc1.O=C(O)C(F)(F)F [TCMDC-138667]	620 nM	0 (0: NO)	5.96 µM	
CCc1ccc(C2CCN(CCCCNC(=O)c3ccc(NC(=O)c4ccc(Cl)cc4)cc3)CC2)c(OCCO)c1 [TCMDC-138703]	2250 nM	0 (0: NO)	5.37 µM	
COc1cc2nc(N3CCC(CNC(=O)c4ccc(-c5ccc(C(F)(F)F)cc5)cc4)CC3)nc(N)c2cc1OC [TCMDC-138716]	850 nM	0 (0: NO)	4.92 µM	
COc1cc2nc(N3CCC(CNC(=O)c4ccc(-c5ccc(Cl)cc5)cc4)CC3)nc(N)c2cc1OC [TCMDC-138718]	890 nM	0 (0: NO)	4.22 µM	
COC(=O)c1ccc(-c2ccc(C(=O)NCC3CCN(c4nc(N)c5cc(OC)c(OC)cc5n4)CC3)cc2)cc1 [TCMDC-138721]	910 nM	0 (0: NO)	6.10 µM	
O=C(NCCCCN1CCC(c2ccc3c(c2OCCN2CCCC2)CCCC3)CC1)c1ccc(-c2ccc(C(F)(F)F)cc2)cc1 [TCMDC-138768]	1980 nM	0 (0: NO)	5.39 µM	
O=C(Nc1ccc(-c2ccccc2)c(OCCN2CCNCC2)c1)c1ccc(-c2ccc(Cl)cc2)cc1 [TCMDC-138818]	1380 nM	0 (0: NO)	4.95 µM	
O=C(NC1CCN(CCN2CCC(c3c[nH]c4ccccc34)CC2)CC1)c1ccc(-c2ccc(C(F)(F)F)cc2)cc1 [TCMDC-138845]	1800 nM	0 (0: NO)	4.68 µM	
CC(C)Cn1cc(C2CCN(CCN3CCC(CNC(=O)c4ccc(-c5ccc(C#N)cc5)cc4)CC3)CC2)c2ccccc21 [TCMDC-138849]	1030 nM	0 (0: NO)	4.79 µM	
CC(C)Cn1cc(C2CCN(CCN3CCC(CNC(=O)c4ccc(-c5ccc(C(F)(F)F)cc5)cc4)CC3)CC2)c2ccccc21 [TCMDC-138852]	880 nM	0 (0: NO)	4.80 µM	
O=C(NCC1CCN(CCN2CCC(c3cn(CCO)c4ccccc34)CC2)CC1)c1ccc(-c2ccc(C(F)(F)F)cc2)cc1 [TCMDC-138856]	1470 nM	0 (0: NO)	2.69 µM	
O=C(O)C(F)(F)F.O=S(=O)(c1ccccc1)n1ccc2cc(Nc3ncnc4cc(C#C[C@H]5CCCN5)sc34)ccc21 [TCMDC-138913]	1170 nM	0 (0: NO)	5.50 µM	
COc1cc2nc(-c3ccc(Br)cc3)cc(N)c2cc1OC [TCMDC-138933]	760 nM	0 (0: NO)	4.95 µM	
CCN1CCC2(c3cccc(OC)c3)Cc3nc4ccccc4c(-c4ccccc4)c3CC2C1 (stereo not drawn) [TCMDC-138968]	1430 nM	1 (1: YES)	33.25 µM	
COc1ccc(NC(=O)c2ccc(OCCCCCCCOc3ccc(C(=O)Nc4ccc(OC)c(N5CCN(C)CC5)c4)cc3)cc2)cc1N1CCN(C)CC1.O=C(O)C(=O)O [TCMDC-139007]	1410 nM	0 (0: NO)	4.43 µM	
COc1ccc(NC(=O)c2cccc(Br)c2)cc1N1CCN(CCCCCCCN2CCN(c3cc(NC(=O)c4cccc(Br)c4)ccc3OC)CC2)CC1.Cl [TCMDC-139020]	1060 nM	0 (0: NO)	6.03 µM	
Oc1ccc2[nH]cc(C3CCN(CCCNCc4ccc(-c5ccccc5)cc4)CC3)c2c1 [TCMDC-139047]	1440 nM	0 (0: NO)	5.62 µM	
Cl.Nc1c2c(nc3ccc(NC(=O)CCCCCCc4ccccc4)cc13)CCCC2 [TCMDC-139056]	2380 nM	0 (0: NO)	5.42 µM	
COC(=O)c1ccc(-c2ccc(-c3cccnc3)cc2C)cc1 [TCMDC-139074]	590 nM	0 (0: NO)	3.63 µM	
c1ccc(C23N=C(Nc4nc5ccccc5[nH]4)NC2(c2ccccc2)NC(Nc2nc4ccccc4[nH]2)=N3)cc1 (stereo not drawn) [TCMDC-139082]	140 nM	1 (1: YES)	58.90 µM	
COc1cccc(C23N=C(Nc4nc5ccccc5[nH]4)NC2(c2cccc(OC)c2)NC(Nc2nc4ccccc4[nH]2)=N3)c1 (stereo not drawn) [TCMDC-139087]	90 nM	1 (1: YES)	40.74 µM	
Clc1cccc(C23N=C(Nc4nc5ccccc5[nH]4)NC2(c2ccccc2)NC(Nc2nc4ccccc4[nH]2)=N3)c1 (stereo not drawn) [TCMDC-139089]	150 nM	1 (1: YES)	42.76 µM	
c1ccc(-c2nc(Nc3nc4ccccc4[nH]3)[nH]c2-c2ccccc2)cc1 [TCMDC-139099]	580 nM	1 (1: YES)	10.98 µM	
CC(C)(CN)c1nc(-c2ccc(Cl)c(O)c2)c(-c2ccncc2)[nH]1.Cl [TCMDC-140369]	940 nM			IC50 [1]: 194 nM; % inhibition, Replicate A [2]: 54.47%; % inhibition, Replicate B [2]: 53.78%; IC50 [2, 7]: 510 nM; IC50 [2, 8]: 514 nM; HepG2 cytoxicity (Pf FGAA screen) (HepG2 cells [4]): 2.16 µM; HepG2 cytoxicity (Pb ODA, this manuscript) (HepG2 cells [5]; HepG2, this manuscript): 1.66 µM; Unified cytotox (HepG2 cells [5]; [9]): 1.91 µM; IC50 (HepG2 cells [5]): 1.66 µM
CCOc1ccc2[nH]c(C)cc(=NN=Cc3cccnc3)c2c1 [TCMDC-142047]				IC50 [1]: 139 nM; Is compound selective in assay? Pb ODA active? [2]: 0 (0: NO); % inhibition, Replicate A [2]: 59.45%; % inhibition, Replicate B [2]: 48.70%; IC50 [2, 7]: 4520 nM; IC50 [2, 8]: 4520 nM; IC50 (HepG2 cells [5]): 15.1 µM; Unified cytotox (HepG2 cells [5]; [11]): 15.14 µM
CC1=CC(=O)[C@@H](O)[C@]2(C)[C@H]3[C@@]4(O)OC[C@@]35[C@@H](C[C@@H]12)OC(=O)C[C@H]5[C@@H](C)[C@H]4O [TCMDC-142261]				IC50 [1]: 109 nM; Is compound selective in assay? Pb ODA active? [2]: 1 (1: YES); % inhibition, Replicate A [2]: 102.04%; % inhibition, Replicate B [2]: 101.98%; IC50 [2, 7]: 54.9 nM; IC50 [2, 8]: 55 nM; IC50 (HepG2 cells [5]): 26.3 µM; Unified cytotox (HepG2 cells [5]; [11]): 26.30 µM
